Measurements: publication PMC7175117, “Biological Evaluation and Docking Studies of New Carbamate, Thiocarbamate, and Hydrazide Analogues of Acyl Homoserine Lactones as Vibrio fischeri-Quorum Sensing Modulators” (Biomolecules, 2020)
Entries after “also recorded” stand apart in the source; their conditions may differ.

How the values were obtained:
[1] = tested on: Vibrio fischeri quorum sensing system; experiment: Agonistic activity: induction of bioluminescence in recombinant E. coli NM522 with sensor plasmid pSB401; format: cell-based
Method: (§1) The recombinant Escherichia coli strain NM522 with the sensor plasmid pSB401 was used to measure the induction of luminescence. Bacterial cultures were grown in Luria broth (50 mL) at 30 °C. After 18 h, this bacterial culture was diluted 10 times to be used in the assay using 96-well plates (100 µL per well). For agonistic activity, compounds were tested at increasing concentrations in DMSO (max 2% in a total volume of 200 µL of LB). For antagonistic activity, compounds were tested in competition with OHHL (200 nM) at increasing concentrations in DMSO (max 2% in a total volume of 200 µL). This 200 nM concentration of OHHL is fully pertinent since concentrations as low as 10 or 50 nM are already valid protocols as reported in meaningful studies. Bioluminescence was measured with a Tecan spark luminometer (Männedorf, Switzerland).
(§2) All compounds were evaluated for the ability to induce bioluminescence (agonistic activity) or to decrease bioluminescence in the presence of 3-oxo-hexanoyl-L-homoserine lactone (OHHL) at 200 nM (antagonistic activity). Hydrazide AHL analogues were deprived of any activity.

[2] = tested on: Vibrio fischeri quorum sensing system; experiment: Antagonistic activity: decrease of bioluminescence in competition with OHHL (200 nM) in recombinant E. coli NM522 with sensor plasmid pSB401; format: cell-based; settings: for residual bioluminescence: 100 µM of analogue in competition with 200 nM OHHL; for IC50: increasing concentration of compound in competition with 200 nM OHHL
Method: as §1, §2
A first assessment of the antagonistic activity was performed by measuring residual bioluminescence at 100 µM concentration of analogues in competition with 200 nM of OHHL. […] A residual bioluminescence of 42% for the L-butyl carbamate derivative 2 vs. 89% for the D-isomer 3 was measured showing the influence of the configuration on luminescence and therefore on QS inhibition.
To determine IC50 values, the decrease of bioluminescence of was measured using increasing concentration of each compound in presence of 200 nM of OHHL (Table 1). Values ranging from 22 to 94 µM, in the range of other reported of AHL-structurally related QS inhibitors, were measured for compounds 2, 4–7, and 9–11. Differences in the calculated LogP values are consistent with inhibitory activity for most compounds except 4-nitrobenzyl analogues. This is the case for all thiocarbamates vs. carbamates, and also when comparing the butyl (2) and hexyl (4) derivatives, or the benzyl and 4-bromobenzyl substituents.

## CCOC(=O)N[C@H]1CCOC1=O [Compound 1, N-(ethoxycarbonyl)-L-homoserine lactone]
[1]; compound at 200 µM, OHHL reference at 200 nM
  bioluminescence induced, relative to that obtained with the natural ligand OHHL at 200 nM: 18%
[1]; induction of bioluminescence, increasing concentrations
  agonistic activity: weak agonistic activity; also recorded: very weak agonistic activity

## CCCCOC(=O)N[C@H]1CCOC1=O [Compound 2, N-(butoxycarbonyl)-L-homoserine lactone]
[2]
  residual bioluminescence: 42%
  IC50: 94 µM

## CCCCOC(=O)N[C@@H]1CCOC1=O [Compound 3, N-(butoxycarbonyl)-D-homoserine lactone]
[2]
  residual bioluminescence: 89%

## CCCCCCOC(=O)N[C@H]1CCOC1=O [Compound 4, N-(hexyloxycarbonyl)-L-homoserine lactone]
[2]
  residual bioluminescence: 22%
  IC50: 73 µM

## O=C(N[C@H]1CCOC1=O)OCc1ccccc1 [Compound 5, N-(benzyloxycarbonyl)-L-homoserine lactone]
[2]
  IC50: 86 µM

## O=C(N[C@H]1CCOC1=O)OCc1ccc(Br)cc1 [Compound 6, N-(4-bromobenzyloxycarbonyl)-L-homoserine lactone]
[2]
  IC50: 64 µM

## CCCCSC(=O)N[C@H]1CCOC1=O [Compound 9, N-(butylthiocarbonyl)-L-homoserine lactone]
[2]
  IC50: 45 µM

## O=C(N[C@H]1CCOC1=O)SCc1ccccc1 [Compound 10, N-(benzylthiocarbonyl)-L-homoserine lactone]
[2]
  IC50: 64 µM
